Measured values as given in the NIST ThermoML archive (doi:10.1021/je9007553).
Where “and” joins values, the source holds several entries; their conditions need not be identical. Equal values may be shown once.

Settings: Crystal, Calculated from knudsen effusion weight loss

[Br][Al]([Br])[Br] [aluminum bromide]
Settings	vapor or sublimation pressure
301 K	0.00013 kPa
303 K	0.00018 kPa
306 K	0.00024 kPa
307 K	0.00035 kPa and 0.00034 kPa
309 K	0.00043 kPa and 0.00035 kPa
310 K	0.00045 kPa
312 K	0.00049 kPa and 0.00056 kPa and 0.00046 kPa
312.5 K	0.00054 kPa
314 K	0.00062 kPa
314.5 K	0.00071 kPa
315 K	0.00072 kPa and 0.00068 kPa
315.5 K	0.00085 kPa
316 K	0.00071 kPa
316.5 K	0.00089 kPa
317 K	0.00095 kPa and 0.00083 kPa
317.5 K	0.00089 kPa
318 K	0.00089 kPa
318.5 K	0.00107 kPa and 0.00102 kPa and 0.00112 kPa
320 K	0.00107 kPa and 0.00123 kPa
320.5 K	0.00123 kPa
321 K	0.00135 kPa
321.5 K	0.00141 kPa
323 K	0.00166 kPa [middle of 4 runs]
324 K	0.0017 kPa and 0.00178 kPa
324.5 K	0.00191 kPa
325 K	0.00209 kPa
326 K	0.00204 kPa and 0.00214 kPa
327 K	0.0024 kPa and 0.00282 kPa
327.5 K	0.00234 kPa
328 K	0.00269 kPa and 0.00251 kPa
330 K	0.00363 kPa and 0.00324 kPa
330.5 K	0.00309 kPa
331 K	0.00389 kPa
332.5 K	0.00468 kPa
333 K	0.00457 kPa and 0.00398 kPa
333.5 K	0.00437 kPa
335 K	0.00575 kPa
336 K	0.00575 kPa and 0.00617 kPa and 0.00562 kPa
337 K	0.00724 kPa
338 K	0.00741 kPa and 0.00794 kPa
340 K	0.00933 kPa and 0.00813 kPa
343 K	0.01259 kPa
344 K	0.01288 kPa
345 K	0.01479 kPa
348 K	0.0195 kPa
351 K	0.02512 kPa

[I][Al]([I])[I] [aluminum iodide]
Settings	vapor or sublimation pressure
359.5 K	7e-05 kPa
361 K	0.0001 kPa
364 K	0.00014 kPa
365 K	0.00019 kPa and 0.00014 kPa
366.5 K	0.00017 kPa
367.5 K	0.00019 kPa
368 K	0.00019 kPa and 0.00025 kPa
368.5 K	0.00025 kPa
369.5 K	0.00025 kPa
371.5 K	0.00027 kPa
372 K	0.0003 kPa and 0.00034 kPa
372.5 K	0.00034 kPa
374.5 K	0.00049 kPa and 0.00039 kPa and 0.00036 kPa
375.5 K	0.00044 kPa
376 K	0.00042 kPa and 0.00049 kPa
377 K	0.00059 kPa and 0.00049 kPa
378 K	0.00054 kPa
378.5 K	0.00059 kPa and 0.00063 kPa
380 K	0.00068 kPa and 0.00071 kPa
380.5 K	0.00083 kPa and 0.00078 kPa
381 K	0.00078 kPa
382 K	0.00083 kPa
383 K	0.00093 kPa
383.5 K	0.00087 kPa
385 K	0.00126 kPa and 0.00102 kPa
385.5 K	0.00112 kPa
387 K	0.00135 kPa
388 K	0.00135 kPa
389 K	0.00186 kPa
390 K	0.0017 kPa and 0.00182 kPa and 0.00174 kPa
391 K	0.0017 kPa and 0.00209 kPa
393 K	0.00245 kPa
393.5 K	0.00214 kPa and 0.00234 kPa
394 K	0.00257 kPa
395 K	0.00251 kPa and 0.00282 kPa
396.5 K	0.00295 kPa
397 K	0.00324 kPa
397.5 K	0.00363 kPa
398 K	0.00347 kPa and 0.00339 kPa
399 K	0.0038 kPa
399.5 K	0.00407 kPa and 0.00417 kPa
400 K	0.00417 kPa
401 K	0.00437 kPa
402 K	0.00537 kPa and 0.00501 kPa
403 K	0.00525 kPa
403.5 K	0.00562 kPa and 0.0055 kPa
404.5 K	0.00562 kPa
405 K	0.00603 kPa and 0.00661 kPa
406 K	0.00759 kPa
407 K	0.00759 kPa
408 K	0.00776 kPa and 0.00794 kPa
408.5 K	0.00871 kPa
409 K	0.00933 kPa
409.5 K	0.00832 kPa
411 K	0.01047 kPa and 0.01023 kPa
412 K	0.01175 kPa and 0.01096 kPa
413 K	0.01288 kPa and 0.01148 kPa
414.5 K	0.01413 kPa
415 K	0.01479 kPa and 0.01445 kPa
416 K	0.01549 kPa and 0.01585 kPa
417 K	0.0166 kPa
417.5 K	0.0182 kPa
419.5 K	0.02188 kPa
